Assay results: US20240261297A1, “ANTI-CDK INHIBITORS FOR CANCER TREATMENT” (St. John's Cancer Institute, priority 2021, published 2024)
Where two headings read alike, the source gives them in different places.

Columns and labels:
CDK6/cyclin D1 = CDK6/cyclin D1 (Homo sapiens, UniProt Q00534); experiment: Radioisotope-based protein kinase assay; type: biochemical; conditions: 10 μM ATP, 3-fold dilution from 10 μM
Method: (§1) A series of test compounds were selected for initial screening against CDK isoforms. Protein kinase assays were performed with gold standard radioisotope-based assay formats to measuring enzyme activity remaining in presence and absence of inhibitor.

CDK1/cyclin A = CDK1/cyclin A (Homo sapiens, UniProt P06493); experiment: Radioisotope-based protein kinase assay; type: biochemical; conditions: 10 μM ATP, 3-fold dilution from 10 μM
Method: as §1

CDK9/cyclin T1 = CDK9/cyclin T1 (Homo sapiens, UniProt P50750); experiment: Radioisotope-based protein kinase assay; type: biochemical; conditions: 10 μM ATP, 3-fold dilution from 10 μM
Method: as §1

CDK2/cyclin A = CDK2/cyclin A (Homo sapiens, UniProt P24941); experiment: Radioisotope-based protein kinase assay; type: biochemical; conditions: 10 μM ATP, 3-fold dilution from 10 μM
Method: as §1

CDK2/cyclin E = CDK2/cyclin E (Homo sapiens, UniProt P24941); experiment: Radioisotope-based protein kinase assay; type: biochemical; conditions: 10 μM ATP, 3-fold dilution from 10 μM
Method: as §1

CDK1/cyclin B = CDK1/cyclin B (Homo sapiens, UniProt P06493); experiment: Radioisotope-based protein kinase assay; type: biochemical; conditions: 10 μM ATP, 3-fold dilution from 10 μM
Method: as §1

[1] = Snapshot plasma pharmacokinetics in mice; type: in vivo
Method: Evaluation of pharmacokinetic (PK) parameters and efficacy of I-3 in a xenograft model was carried out in mice. […] Briefly, mice were treated with 5 mg/kg of 1-3 or merioline-3. Plasma was then collected at different time points and measured for drug concentration. […] PK parameters of I-3 was also compared to a panel of CDK inhibitors (Table 13). […] Likewise, Ribociclib has a better Cmax than I-3, but it is primarily a CDK4/6 inhibitor.

CDK4/cyclin D1 = CDK4/cyclin D1 (Homo sapiens, UniProt P11802); experiment: Radioisotope-based protein kinase assay; type: biochemical; conditions: 10 μM ATP, 3-fold dilution from 10 μM
Method: as §1

CKD9/Cyclin H = CKD9/Cyclin H (Homo sapiens, UniProt P50750); experiment: Biochemical profile against CDKs and binding partners (Table 3)
Method: as §1

CDK5/p35 = CDK5/p35 (Homo sapiens, UniProt Q00535); experiment: Radioisotope-based protein kinase assay; type: biochemical; conditions: Table 2
Method: as §1
The activity of compound I-3 was compared to that of a panel of CDKs and their respective binding partners (Tables 2 and 3).

CDK7/cyclin H = CDK7/cyclin H (Homo sapiens, UniProt P50613); experiment: Radioisotope-based protein kinase assay; type: biochemical; conditions: 10 μM ATP, 3-fold dilution from 10 μM
Method: as §1

MCF-10A = experiment: Cell viability in breast cell lines; type: cell-based; conditions: MCF-10A, 72 hours, Table 6, read-out: Cell viability by CellTiter Glo IC50
From the text: (§2) Tables 5 and 6 show assessment of in vitro efficacy of I-3 in a panel of breast cancer cell lines.

MDA-MB-468 = experiment: Cell viability in breast cancer cell lines; type: cell-based; conditions: MDA-MB-468, 72 hours, Table 6, read-out: Cell viability by CellTiter Glo IC50
From the text: as §2

PLC/PRF/5 cells = experiment: Cell viability of HCC cells by CellTiter Glo assay; type: cell-based; conditions: 72 hours
Method: FIG. 5 is a graph showing cell viability of hepatocellular carcinoma (HCC) cell lines treated with I-3 for 72 hours, assessed by CellTiter Glo assay, with the control level of cells considered 100%.
I-3 was also tested for efficacy on hepatocellular carcinoma (HCC) cell lines. Cell viability was measured by CellTiter Glo assay (FIG. 5 and Table 8).

[2] = tested on: caspase 3/7 in MDA-MB-468 cells; experiment: Caspase Glo 3/7 activity assay in MDA-MB-468 cells; type: cell-based; conditions: 24 hours
Method: Further anti-proliferative effect of 1-3 was evaluated in the TNBC cell line MDA-MB-468 based on biomarker (CDK2) inhibition. […] The mechanistic cell cycle block is aligned with biomarker. In addition, Caspase Glo 3/7 activation was tested to confirm the sub-G1 (apoptotic) arrest in cell cycle.

[3] = tested on: caspase 3/7 in PLC/PRF/5 cells; experiment: Caspase Glo 3/7 activity assay in PLC/PRF/5 cells; type: cell-based
[4] = PO 5 mg/kg, cassette dosing, plasma

Sequence of CDK9/cyclin T1 (P50750 whole entry): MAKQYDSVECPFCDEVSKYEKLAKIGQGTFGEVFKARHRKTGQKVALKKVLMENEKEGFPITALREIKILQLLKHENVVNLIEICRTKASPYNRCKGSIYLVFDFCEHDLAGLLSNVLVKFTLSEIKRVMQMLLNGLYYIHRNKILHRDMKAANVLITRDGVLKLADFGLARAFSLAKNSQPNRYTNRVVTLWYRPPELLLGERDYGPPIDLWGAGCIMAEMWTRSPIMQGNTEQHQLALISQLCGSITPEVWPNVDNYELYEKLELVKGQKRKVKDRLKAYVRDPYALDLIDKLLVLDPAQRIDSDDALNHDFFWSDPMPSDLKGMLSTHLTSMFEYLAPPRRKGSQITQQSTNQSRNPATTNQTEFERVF
Sequence of CDK9/cyclin T1 (O60563 whole entry partner): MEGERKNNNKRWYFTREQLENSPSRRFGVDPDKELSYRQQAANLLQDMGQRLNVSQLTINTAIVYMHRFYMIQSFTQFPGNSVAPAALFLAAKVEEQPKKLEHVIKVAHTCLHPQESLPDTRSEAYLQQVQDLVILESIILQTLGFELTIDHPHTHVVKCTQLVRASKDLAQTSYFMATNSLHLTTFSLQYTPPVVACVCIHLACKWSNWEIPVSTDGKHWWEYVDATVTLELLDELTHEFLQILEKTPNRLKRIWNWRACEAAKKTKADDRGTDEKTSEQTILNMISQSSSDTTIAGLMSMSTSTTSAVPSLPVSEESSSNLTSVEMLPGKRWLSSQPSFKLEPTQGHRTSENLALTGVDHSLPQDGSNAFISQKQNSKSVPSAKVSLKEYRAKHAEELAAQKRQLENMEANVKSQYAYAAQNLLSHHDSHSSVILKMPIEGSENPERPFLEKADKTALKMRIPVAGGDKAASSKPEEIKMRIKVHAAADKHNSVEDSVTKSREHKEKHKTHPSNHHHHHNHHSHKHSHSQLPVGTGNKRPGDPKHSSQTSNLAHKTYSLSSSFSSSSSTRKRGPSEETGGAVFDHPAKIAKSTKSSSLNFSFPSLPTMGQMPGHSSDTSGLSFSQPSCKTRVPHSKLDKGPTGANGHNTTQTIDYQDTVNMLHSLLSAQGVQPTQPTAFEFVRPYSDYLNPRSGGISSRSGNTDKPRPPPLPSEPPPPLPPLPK
Sequence of CDK6/cyclin D1 (Q00534 whole entry, canonical isoform): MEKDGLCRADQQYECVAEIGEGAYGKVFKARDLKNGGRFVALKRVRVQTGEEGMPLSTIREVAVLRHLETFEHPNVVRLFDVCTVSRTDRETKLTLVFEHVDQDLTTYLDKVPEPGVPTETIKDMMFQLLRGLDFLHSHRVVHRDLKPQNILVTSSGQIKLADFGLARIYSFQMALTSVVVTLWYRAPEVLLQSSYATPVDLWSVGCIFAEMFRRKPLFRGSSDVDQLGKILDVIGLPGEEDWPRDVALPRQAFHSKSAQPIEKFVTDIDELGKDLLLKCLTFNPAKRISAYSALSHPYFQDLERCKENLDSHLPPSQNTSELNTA
Sequence of CDK6/cyclin D1 (P24385 whole entry partner, canonical isoform): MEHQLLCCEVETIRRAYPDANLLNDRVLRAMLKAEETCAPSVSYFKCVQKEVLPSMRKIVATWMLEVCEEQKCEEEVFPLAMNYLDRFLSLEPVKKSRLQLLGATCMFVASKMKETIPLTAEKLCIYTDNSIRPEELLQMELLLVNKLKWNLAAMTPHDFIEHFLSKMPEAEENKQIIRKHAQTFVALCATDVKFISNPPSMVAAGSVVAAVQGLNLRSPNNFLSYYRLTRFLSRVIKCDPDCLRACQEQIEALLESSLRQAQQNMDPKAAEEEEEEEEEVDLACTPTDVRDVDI
Sequence of CDK1/cyclin B (P06493 whole entry): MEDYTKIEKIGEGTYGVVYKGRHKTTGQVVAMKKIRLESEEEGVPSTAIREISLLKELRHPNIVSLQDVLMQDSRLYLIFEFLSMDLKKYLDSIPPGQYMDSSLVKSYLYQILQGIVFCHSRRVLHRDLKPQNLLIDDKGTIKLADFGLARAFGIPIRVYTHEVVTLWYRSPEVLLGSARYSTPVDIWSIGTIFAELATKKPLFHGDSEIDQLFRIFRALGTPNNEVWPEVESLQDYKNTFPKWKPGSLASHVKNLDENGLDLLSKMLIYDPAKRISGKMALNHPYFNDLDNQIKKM
Sequence of CDK1/cyclin B (P14635 whole entry partner): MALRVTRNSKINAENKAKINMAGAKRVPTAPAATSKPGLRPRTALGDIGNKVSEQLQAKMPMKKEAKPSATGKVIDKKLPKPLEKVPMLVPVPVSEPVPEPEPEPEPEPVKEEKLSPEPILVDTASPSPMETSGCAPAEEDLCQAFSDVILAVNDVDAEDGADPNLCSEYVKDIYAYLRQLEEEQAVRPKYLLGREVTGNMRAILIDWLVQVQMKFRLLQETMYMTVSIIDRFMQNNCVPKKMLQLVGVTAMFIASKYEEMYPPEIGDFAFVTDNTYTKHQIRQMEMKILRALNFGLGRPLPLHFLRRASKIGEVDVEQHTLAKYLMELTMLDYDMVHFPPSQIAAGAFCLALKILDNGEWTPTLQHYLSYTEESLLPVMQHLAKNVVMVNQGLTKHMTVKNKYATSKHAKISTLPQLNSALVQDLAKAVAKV
Sequence of CDK4/cyclin D1 (P11802 whole entry): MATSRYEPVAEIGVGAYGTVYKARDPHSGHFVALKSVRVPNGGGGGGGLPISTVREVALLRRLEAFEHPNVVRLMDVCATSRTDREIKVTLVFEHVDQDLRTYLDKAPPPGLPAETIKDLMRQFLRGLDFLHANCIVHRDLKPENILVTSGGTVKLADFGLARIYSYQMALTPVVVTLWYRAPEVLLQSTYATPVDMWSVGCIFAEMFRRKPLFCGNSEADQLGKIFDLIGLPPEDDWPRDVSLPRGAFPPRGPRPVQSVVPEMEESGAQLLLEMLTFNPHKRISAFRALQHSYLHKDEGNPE
Sequence of CDK4/cyclin D1 (P24385 whole entry partner): as the sequence (P24385 whole entry partner, canonical isoform) above
Sequence of CKD9/Cyclin H (P50750 whole entry): as the sequence (P50750 whole entry) above
Sequence of CDK7/cyclin H (P50613 whole entry): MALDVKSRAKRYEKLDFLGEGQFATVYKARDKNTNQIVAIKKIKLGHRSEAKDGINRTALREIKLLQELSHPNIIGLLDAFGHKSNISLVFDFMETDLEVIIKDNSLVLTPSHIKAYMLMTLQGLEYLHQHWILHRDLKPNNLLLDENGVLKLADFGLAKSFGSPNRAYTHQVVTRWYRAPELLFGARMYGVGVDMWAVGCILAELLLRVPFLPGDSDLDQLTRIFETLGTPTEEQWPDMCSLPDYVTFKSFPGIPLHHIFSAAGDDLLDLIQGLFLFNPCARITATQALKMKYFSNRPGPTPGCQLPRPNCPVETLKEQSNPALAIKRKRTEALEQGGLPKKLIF
Sequence of CDK7/cyclin H (P51946 whole entry partner): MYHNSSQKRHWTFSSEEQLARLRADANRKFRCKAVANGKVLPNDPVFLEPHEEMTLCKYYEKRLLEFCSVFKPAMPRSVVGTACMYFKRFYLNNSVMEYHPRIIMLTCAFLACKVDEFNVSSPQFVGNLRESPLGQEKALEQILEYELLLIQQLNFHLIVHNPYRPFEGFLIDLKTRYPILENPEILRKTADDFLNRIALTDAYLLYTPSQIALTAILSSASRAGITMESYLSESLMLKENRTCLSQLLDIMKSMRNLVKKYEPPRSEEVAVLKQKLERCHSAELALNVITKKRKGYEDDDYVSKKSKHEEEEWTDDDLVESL
Sequence of CDK7/cyclin H (P51948 whole entry partner): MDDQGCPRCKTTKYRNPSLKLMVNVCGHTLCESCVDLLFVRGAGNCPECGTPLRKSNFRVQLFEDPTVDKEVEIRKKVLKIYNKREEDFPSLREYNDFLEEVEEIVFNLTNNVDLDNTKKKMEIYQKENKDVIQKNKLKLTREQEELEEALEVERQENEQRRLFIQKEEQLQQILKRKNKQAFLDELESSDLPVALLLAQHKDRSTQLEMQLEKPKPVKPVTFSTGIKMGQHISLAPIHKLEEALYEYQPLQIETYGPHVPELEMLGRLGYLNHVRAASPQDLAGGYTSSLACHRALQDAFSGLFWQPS
Sequence of CDK5/p35 (Q00535 whole entry): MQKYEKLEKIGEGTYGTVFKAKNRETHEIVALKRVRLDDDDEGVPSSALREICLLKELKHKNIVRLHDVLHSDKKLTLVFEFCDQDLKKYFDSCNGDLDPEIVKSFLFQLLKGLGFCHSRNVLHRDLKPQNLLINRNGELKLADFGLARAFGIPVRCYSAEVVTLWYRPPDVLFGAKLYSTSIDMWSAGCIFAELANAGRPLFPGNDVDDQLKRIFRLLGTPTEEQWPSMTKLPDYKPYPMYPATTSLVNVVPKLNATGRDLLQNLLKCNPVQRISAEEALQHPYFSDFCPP
Sequence of CDK5/p35 (Q15078 whole entry partner): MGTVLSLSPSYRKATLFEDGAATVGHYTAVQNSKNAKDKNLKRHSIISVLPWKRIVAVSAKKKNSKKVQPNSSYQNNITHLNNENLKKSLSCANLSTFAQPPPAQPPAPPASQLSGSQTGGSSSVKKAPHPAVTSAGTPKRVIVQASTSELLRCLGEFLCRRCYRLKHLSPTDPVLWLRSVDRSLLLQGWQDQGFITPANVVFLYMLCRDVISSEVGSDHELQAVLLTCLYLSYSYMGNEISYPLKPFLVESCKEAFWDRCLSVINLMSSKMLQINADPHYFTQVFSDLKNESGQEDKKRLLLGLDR

Q: With `Nc1nccc(-c2c[nH]c3nccc(Oc4ccc(F)cc4)c23)n1` [I-6, 4-(4-(4-fluorophenoxy)-1H-pyrrolo[2,3-b]pyridin-3-yl)pyrimidin-2-amine] as the compound, how does the IC50 (CDK6/cyclin D1) read?
A: The IC50 was 0.196 µM.

Q: And the IC50 (CDK1/cyclin A)?
A: The IC50 was 0.004 µM.

Q: What about the IC50 (CDK9/cyclin T1) of the same compound?
A: Its IC50 is 0.003 µM.

Q: And the IC50 (CDK2/cyclin A)?
A: Its IC50 is 0.005 µM.

Q: For `CNC(=O)c1nn(C)c2c1C(C)(C)Cc1cnc(Nc3ccc(N4CCN(C)CC4)cc3)nc1-2` [Milciclib], which IC50 (CDK2/cyclin E) is on record?
A: Its IC50 is 0.363 µM.

Q: And the IC50 (CDK1/cyclin B)?
A: Its IC50 is 0.398 µM.

Q: And the Tmax ([1]; mouse, in vivo)?
A: The Tmax was 3.5 h.

Q: What about the AUC(0-inf) ([1]; mouse, in vivo, AUCinf) of the same compound?
A: The AUC(0-inf) was 2980 ng·h/mL.

Q: What about the Cmax ([1]; mouse, in vivo, Cmax) of the same compound?
A: Its Cmax is 537 ng/mL.

Q: Which IC50 (CDK2/cyclin E) does the source give for `Nc1nccc(-c2c[nH]c3nccc(Oc4cc(F)cc(F)c4)c23)n1` [I-4, 4-(4-(3,5-difluorophenoxy)-1H-pyrrolo[2,3-b]pyridin-3-yl)pyrimidin-2-amine] here?
A: Its IC50 is 0.002 µM.

Q: What about the IC50 (CDK4/cyclin D1) of the same compound?
A: The IC50 was 0.462 µM.

Q: What about the IC50 (CDK1/cyclin B) of the same compound?
A: Its IC50 is 0.007 µM.

Q: Which AUC(0-inf) ([1]; mouse, plasma, oral, 5 mg/kg, in vivo PK comparison of CDK inhibitors, Table 13, read-out: AUCinf) does the source give for `CC(=O)c1c(C)c2cnc(Nc3ccc(N4CCNCC4)cn3)nc2n(C2CCCC2)c1=O` [Palbociclib] here?
A: Its AUC(0-inf) is 641 ng·h/mL.

Q: And the Cmax ([1]; mouse, plasma, oral, 5 mg/kg, in vivo PK comparison of CDK inhibitors, Table 13, read-out: Cmax)?
A: Its Cmax is 196 ng/mL.

Q: And the Tmax ([1]; mouse, plasma, oral, 5 mg/kg, in vivo PK comparison of CDK inhibitors, Table 13, read-out: Tmax)?
A: Its Tmax is 2.1 h.

Q: For `CN(C)C(=O)c1cc2cnc(Nc3ccc(N4CCNCC4)cn3)nc2n1C1CCCC1` [Ribociclib], which Tmax ([1]; mouse, in vivo) is on record?
A: The Tmax was 5.7 h.

Q: And the AUC(0-inf) ([1]; mouse, in vivo, AUCinf)?
A: The AUC(0-inf) was 2780 ng·h/mL.

Q: What about the Cmax ([1]; mouse, in vivo, Cmax) of the same compound?
A: The Cmax was 303 ng/mL.

Q: With `CCN1CCN(Cc2ccc(Nc3ncc(F)c(-c4cc(F)c5nc(C)n(C(C)C)c5c4)n3)nc2)CC1` [Abemaciclib] as the compound, how does the Tmax ([1]; mouse, in vivo) read?
A: Its Tmax is 5.5 h.

Q: What about the AUC(0-inf) ([1]; mouse, in vivo, AUCinf) of the same compound?
A: Its AUC(0-inf) is 613 ng·h/mL.

Q: What about the Cmax ([1]; mouse, in vivo, Cmax) of the same compound?
A: The Cmax was 107 ng/mL.

Q: For Merioline-3, which IC50 (CKD9/Cyclin H) is on record?
A: The IC50 was 0.002 µM.

Q: And the IC50 (CDK6/cyclin D1)?
A: Its IC50 is 0.13 µM.

Q: What about the IC50 (CDK1/cyclin A) of the same compound?
A: Its IC50 is 0.005 µM.

Q: And the IC50 (CDK9/cyclin T1)?
A: Its IC50 is 0.002 µM.

Q: And the IC50 (CDK2/cyclin A)?
A: The IC50 was 0.003 µM.

Q: What about the IC50 (CDK2/cyclin E) of the same compound?
A: Its IC50 is 0.002 µM.

Q: What about the IC50 (CDK4/cyclin D1) of the same compound?
A: Its IC50 is 0.182 µM.

Q: What about the IC50 (CDK1/cyclin B) of the same compound?
A: Its IC50 is 0.007 µM.

Q: And the IC50 (CDK5/p35)?
A: The IC50 was 0.003 µM.

Q: What about the Cmax [1, 4] of the same compound?
A: Its Cmax is 178 ng/mL.

Q: What about the AUCinf ([1]; mice, IV 5 mg/kg, plasma) of the same compound?
A: Its AUCinf is 83,600 min*ng/mL.

Q: And the Cmax ([1]; mice, IV 5 mg/kg, plasma)?
A: The Cmax was 5560 ng/mL.

Q: And the T1/2 ([1]; mice, IV 5 mg/kg, plasma)?
A: The T1/2 was 0.124 h.

Q: What about the Tmax ([1]; mice, IV 5 mg/kg, plasma) of the same compound?
A: The Tmax was 0.0833 h.

Q: And the AUCinf ([1]; mice, PO 5 mg/kg, plasma)?
A: The AUCinf was 4340 ng·min/mL.

Q: What about the Cmax ([1]; mice, PO 5 mg/kg, plasma) of the same compound?
A: Its Cmax is 483 ng/mL.

Q: What about the Tmax ([1]; mice, PO 5 mg/kg, plasma) of the same compound?
A: Its Tmax is 1 h.

Q: For `Nc1nccc(-c2c[nH]c3nccc(Oc4ccccc4)c23)n1` [I-1, 4-(4-phenoxy-1H-pyrrolo[2,3-b]pyridin-3-yl)pyrimidin-2-amine], which IC50 (CDK6/cyclin D1) is on record?
A: Its IC50 is 0.138 µM.

Q: What about the IC50 (CDK1/cyclin A) of the same compound?
A: The IC50 was 0.003 µM.

Q: What about the IC50 (CDK2/cyclin A) of the same compound?
A: Its IC50 is 0.003 µM.

Q: And the IC50 (CDK2/cyclin E)?
A: Its IC50 is 0.002 µM.

Q: And the IC50 (CDK4/cyclin D1)?
A: The IC50 was 0.259 µM.

Q: What about the IC50 (CDK1/cyclin B) of the same compound?
A: The IC50 was 0.004 µM.

Q: Which IC50 (CDK9/cyclin T1) does the source give for `Nc1nccc(-c2c[nH]c3nccc(Oc4cccc(C(F)(F)F)c4)c23)n1` [I-5, 4-(4-(3-(trifluoromethyl)phenoxy)-1H-pyrrolo[2,3-b]pyridin-3-yl)pyrimidin-2-amine] here?
A: Its IC50 is 0.016 µM.

Q: And the IC50 (CDK7/cyclin H)?
A: The IC50 was 0.043 µM.

Q: What about the IC50 (CDK2/cyclin E) of the same compound?
A: Its IC50 is 0.027 µM.

Q: Which IC50 (MCF-10A; Homo sapiens) does the source give for `CC[C@H](Nc1nc(NCc2cnc(C)cc2C)c2ncn(C(C)C)c2n1)[C@@H](C)O` [CYC065, reference compound] here?
A: The IC50 was 0.4 µM.

Q: What about the IC50 (MDA-MB-468; Homo sapiens) of the same compound?
A: The IC50 was 0.38 µM.

Q: And the IC50 (CDK2/cyclin E)?
A: The IC50 was 0.005 µM.

Q: And the IC50 (CDK4/cyclin D1)?
A: The IC50 was 0.021 µM.

Q: And the IC50 (CDK1/cyclin B)?
A: The IC50 was 0.578 µM.

Q: Which IC50 (MCF-10A) does the source give for `C[C@@]1(O)CCC[C@H]1n1c(=O)c(C(F)F)cc2cnc(NC3CCN(S(C)(=O)=O)CC3)nc21` [PF-06873600, reference compound] here?
A: Its IC50 is 0.66 µM.

Q: What about the IC50 (CKD9/Cyclin H) of the same compound?
A: Its IC50 is 0.043 µM.

Q: And the IC50 (PLC/PRF/5 cells)?
A: The IC50 was 3.48 µM.

Q: What about the IC50 (MDA-MB-468) of the same compound?
A: The IC50 was 0.065 µM.

Q: What about the “Caspase 3/7 activation” value [2] of the same compound?
A: Its value is “no caspase 3/7 activation”.

Q: What about the IC50 [2] of the same compound?
A: Its IC50 is 5.66 µM.

Q: What about the IC50 [3] of the same compound?
A: The IC50 was 3.56 µM.

Q: And the Cmax [1, 4]?
A: Its Cmax is 196 ng/mL.

Q: And the T1/2 [1, 4]?
A: Its T1/2 is 2.1 h.

Q: With `CNC(=O)c1cc(Oc2ccc(NC(=O)Nc3ccc(Cl)c(C(F)(F)F)c3)cc2)ccn1` [Sorafenib] as the compound, how does the IC50 (PLC/PRF/5 cells; Homo sapiens) read?
A: The IC50 was 6.3 µM.

Q: What does the source list for `Nc1nccc(-c2c[nH]c3nccc(Oc4cccc(Cl)c4)c23)n1` [I-2, 4-(4-(3-chlorophenoxy)-1H-pyrrolo[2,3-b]pyridin-3-yl)pyrimidin-2-amine]?
A: IC50 (CDK6/cyclin D1): 0.819 µM; IC50 (CDK1/cyclin A): 0.011 µM; IC50 (CDK2/cyclin A): 0.009 µM; IC50 (CDK2/cyclin E): 0.008 µM; IC50 (CDK4/cyclin D1): 0.875 µM; IC50 (CDK1/cyclin B): 0.016 µM
